Assay results from patent US20220324835A1 (Nurix Therapeutics, Inc., priority 2018, published 2022).
Like-named read-outs stand apart in the source and are kept apart here.

Experiments:
[1] = system: T-cell; experiment: CD25 cell surface staining on T-cells stimulated with anti-CD3 antibody alone (Biological Example 2); type: cell-based, human; settings: T-cell, fold change over baseline, primary human total T-cells, read-out: CD25 staining Anti-CD3 stimulation; for fold induction at 1 µM: 1 μM Cbl-b inhibitor; for fold induction at 8 µM: 8 μM Cbl-b inhibitor
[2] = system: T-cell; experiment: IL-2 secretion from T-cells co-stimulated with anti-CD3 and anti-CD28 antibody (Biological Example 2); type: cell-based, human; settings: Homo sapiens, T-cell, fold change over baseline, primary human total T-cells, read-out: IL-2 secretion Anti-CD3/Anti-CD28 stimulation; for fold induction at 0.3 µM: 0.3 μM Cbl-b inhibitor; for fold induction at 1 µM: 1 μM Cbl-b inhibitor; for fold induction at 4 µM: 4 μM Cbl-b inhibitor
Outline: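 Values are fold-change over baseline: readings (IL-2 release, CD25 staining) from inhibitor-treated T-cells divided against untreated cells […]. No detailed procedure stated.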

[3] = molecular target: Cbl-b (residues 36-427) (Homo sapiens, UniProt Q13191); experiment: Cbl-b binding assay (SPR, Biacore T200); settings: 20° C., 1:1 binding model
Outline: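 NeutrAvidin capture chip, 20° C; 50 s injections at 50 μl/min, 90-180 s dissociation; 0.3 M NaCl regeneration. Asterisked column: 50 mM NaCl buffer and 30 nM Src kinase in place of 100 mM NaCl and 60 nM Src kinase. 1:1 fit.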

[4] = molecular target: Cbl-b (Homo sapiens, UniProt Q13191); experiment: Cbl-b activity assay (Cbl-b inhibition assay), TR-FRET of Cbl-b interaction with UbcH5B-Ub; type: biochemical
Outline: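 Compound-treated Cbl-b was incubated 1.5 h with Src kinase (60 nM final; 30 nM for asterisked values, which also used 50 mM instead of 100 mM NaCl), 1 mM ATP and 5 mM MgCl2. Binding to fluorescent Ub-loaded UbcH5B (C85K mutant) was then read by TR-FRET after 1 h more.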

[5] = assay buffer with 100 mM NaCl, 60 nM Src kinase, read-out: Cbl-b activity IC50

Chain of Cbl-b (Q13191 36-427): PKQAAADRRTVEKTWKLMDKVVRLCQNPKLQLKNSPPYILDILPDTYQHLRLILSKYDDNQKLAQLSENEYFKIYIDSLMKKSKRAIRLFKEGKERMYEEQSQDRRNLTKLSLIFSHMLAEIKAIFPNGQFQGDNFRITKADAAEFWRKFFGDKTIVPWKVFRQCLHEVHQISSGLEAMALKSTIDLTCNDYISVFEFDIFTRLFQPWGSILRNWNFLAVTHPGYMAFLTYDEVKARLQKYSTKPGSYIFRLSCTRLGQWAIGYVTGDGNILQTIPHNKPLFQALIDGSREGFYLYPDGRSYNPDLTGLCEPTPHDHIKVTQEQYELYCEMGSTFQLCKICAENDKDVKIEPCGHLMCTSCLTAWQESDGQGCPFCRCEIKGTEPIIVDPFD
Chain of Cbl-b (residues 36-427) (Q13191 36-427): as above

Structure (SMILES)	fold induction at 1 µM [1]	fold induction at 8 µM [1]	fold induction at 0.3 µM [2]	fold induction at 1 µM [2]	fold induction at 4 µM [2]	Kd [3]	IC50 [4, 5]	IC50 ([4]; * assay buffer containing 50 mM NaCl instead of 100 mM NaCl and 30 nM Src kinase instead of 60 nM, read-out: Cbl-b activity IC50 (μM)*)
C[C@H](Sc1nncn1C)c1cccc(NC(=O)c2cc(C(F)(F)F)cc(C3CC3)n2)c1 [Compound 69, (S)-6-cyclopropyl-N-(3-(1-((4-methyl-4H-1,2,4-triazol-3-yl)thio)ethyl)phenyl)-4-(trifluoromethyl)picolinamide]	< 0.6	< 0.6	< 1	< 1	1.01 to 2.5	3000 to 10000 nM	0.301 to 1 µM	–
C[C@H](Cc1nncn1C)c1cc(F)cc(N2Cc3c(cccc3C(F)(F)F)C2=O)c1 [Compound 281a, 2-[3-Fluoro-5-[(1R)-1-methyl-2-(4-methyl-1,2,4-triazol-3-yl)ethyl]phenyl]-4-(trifluoromethyl)isoindolin-1-one]	0.801 to 1	> 1	1.01 to 2.5	1.01 to 2.5	2.51 to 5	100 to 300 nM	0.1 to 0.3 µM	–
C[C@H](Sc1nnc[nH]1)c1cccc(NC(=O)c2cc3ccccc3cn2)c1 [Compound 98, (S)-N-(3-(1-((4H-1,2,4-triazol-3-yl)thio)ethyl)phenyl)isoquinoline-3-carboxamide]	< 0.6	< 0.6	1.01 to 2.5	1.01 to 2.5	1.01 to 2.5	3000 to 10000 nM	0.301 to 1 µM	1 to 3 µM
